The values that follow come from patent US20100075907A1, “NEUROMEDIN U RECEPTOR AGONISTS AND USES THEREOF” (priority 2006, published 2010).

By IC50 is commonly meant the concentration that inhibits the measured activity by half.

The subject of one assay is diet-induced obese mice. The assay is described as follows: Feeding study in diet-induced obese mice (food intake, body weight). The class given is in vivo. An excerpt: NMUR1 knockout (Nmur1−/−) mice were generated using standard homologous recombination techniques. Nmur1 mice were subsequently transferred to Taconic Farms where they were either maintained on a 75% C57BL/6×25% 129S6/SvEv mixed genetic background or backcrossed six generations to C57BL/6. NMUR2 knockout (Nmur2−/−) mice were licensed from Deltagen Inc., San Mateo, Calif. and subsequently transferred to Taconic Farms where they were either maintained on a 75% C57BL/6×25% 129/OlaHsd mixed genetic background or backcrossed for seven generations to C57BL/6. NMUR1 and NMUR2 double knockout (Nmur1&2−/−) mice were generated by crossing N6 Nmur1−/− mice to N7 Nmur2−/− mice. Mice were individually housed in Tecniplast cages in a conventional SPF facility. Mice were initially maintained on a regular chow diet and then early in their life were switched to a high fat diet (D12492: 60% kcal from fat; Research Diets, Inc., New Brunswick, N.J.) with ad libitum access to water in a 12-hour light/12-hour dark cycle.
Ad libitum fed male diet-induced obese mice were weighed and dosed either i.p. or s.c. about 30 minutes prior to the onset of the dark phase of the light cycle and provided with a preweighed aliquot of high fat diet D12492 which was then weighed 2 hours and 18 hours (day 1), 42 hours (day 2), 66 hours (day 3), and 90 hours (day 4) after the onset of the initial dark phase. Mice were weighed at the 18, 42, 66 and 90 hour time points.

A further assay addresses hNMUR2 (Homo sapiens, UniProt Q9GZQ4). The assay is described as follows: FLIPR calcium mobilization assay, human NMUR2. In kind it is cell-based. Also noted: expressed in transfected cells; host or cells: FLP-In CHO or HEK-293 FLP-In cells (pcDNA5); HEK-293/aeq17 lines (pcDNA3.1) were also made. As to conditions: functional data, human R2.
A further assay has as its target T1, rat NMUR1-ATG (Rattus norvegicus, UniProt Q9JJI5).
T1 sequence (Q9JJI5 1-425): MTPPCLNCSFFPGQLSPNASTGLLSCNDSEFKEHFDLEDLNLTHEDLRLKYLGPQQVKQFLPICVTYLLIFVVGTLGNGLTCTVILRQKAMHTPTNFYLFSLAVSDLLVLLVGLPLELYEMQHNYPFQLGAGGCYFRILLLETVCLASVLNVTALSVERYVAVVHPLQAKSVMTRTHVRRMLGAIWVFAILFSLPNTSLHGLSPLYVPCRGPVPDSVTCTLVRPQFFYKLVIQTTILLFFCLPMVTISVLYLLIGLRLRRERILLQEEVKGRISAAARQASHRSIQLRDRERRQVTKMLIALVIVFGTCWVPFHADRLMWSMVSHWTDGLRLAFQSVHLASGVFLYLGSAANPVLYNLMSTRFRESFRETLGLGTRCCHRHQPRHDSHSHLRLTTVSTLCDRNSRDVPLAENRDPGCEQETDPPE
As to the kind of experiment: 125I-hNMU-25 binding assay, rat R1-ATG. Details: expressed in transfected cells; host or cells: HEK-293 FLP-In cells (pcDNA5). As for the experimental part: Confluent cell monolayers expressing NMU receptors (the HEK cells described above) were harvested with phosphate buffered saline, collected by centrifugation, and resuspended in membrane buffer (50 mM TrisCl pH 7.4, 5 mM MgCl2, 1× Protease Inhibitor Cocktail, 10 μM phosphoramidon). After the cell pellet was homogenized, the solution was centrifuged at 18,000 rpm for 20 minutes at 4° C. The pellet was resuspended in membrane buffer to yield a final concentration of 0.5-5 μg/μL of membrane and stored at −80° C.
Experiments were performed in assay buffer (25 mM TrisCl, pH 7.4, 10 mM MgCl2, 2 mM EDTA, 1× Protease Inhibitor Cocktail, 100 μg/mL Bacitricin, 10 μM phosphoramidon) in 200 μL volumes in a 96-well format using 2-5 μg of membrane and 0.1 nM ^125I-hNMU-25 (about 12,000 cpm/well). For non-specific binding, 1 μM hNMU-25 was added. About 5 μL of peptides were added to measure antagonist activity, and the entire reaction was incubated at room temperature with shaking for 80 minutes. The reaction was terminated by rapid filtration through 0.3% poly-ethylenimine presoaked Millipore 96-well filter plates and washed with ice-cold buffer (5 mM TrisCl pH 7.4, 10 mM MgCl2, 2.5 mM EDTA, 0.04% Triton X-100). Plates were air-dried overnight at room temperature and recovered radioactivity was determined by standard scintillation counting. IC50 values were determined using GraphPad Prism software.
Concentration-response curves and radioligand-binding data were fitted using Prism (GraphPad Software). Results are summarized below in Tables 8 and 9.

Non-standard residues stand in square brackets, D forms with d. Residues, ends and D or L forms follow the SMILES beside them. *: point of attachment. Succinimide(1-Et,3-yl) = CCN1C(=O)CC(*)C1=O

hNMUR2, sequence (Q9GZQ4 whole entry): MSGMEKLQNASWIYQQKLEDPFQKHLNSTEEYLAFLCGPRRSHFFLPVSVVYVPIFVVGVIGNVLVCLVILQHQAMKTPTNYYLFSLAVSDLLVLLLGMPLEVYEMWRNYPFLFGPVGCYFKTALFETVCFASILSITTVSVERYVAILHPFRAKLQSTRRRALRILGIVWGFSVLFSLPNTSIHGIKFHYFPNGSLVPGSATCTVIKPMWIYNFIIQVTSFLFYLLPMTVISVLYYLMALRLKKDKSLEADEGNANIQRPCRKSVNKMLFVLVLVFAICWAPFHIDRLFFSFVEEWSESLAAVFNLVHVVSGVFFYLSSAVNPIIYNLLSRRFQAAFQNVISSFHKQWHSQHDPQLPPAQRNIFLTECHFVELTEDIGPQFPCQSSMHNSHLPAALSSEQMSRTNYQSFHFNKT

On to `CCN1C(=O)CC(SC[C@H](NC(C)=O)C(=O)N[C@@H](Cc2ccccc2)C(=O)N[C@@H](CCCNC(=N)N)C(=O)N[C@H](C(=O)N[C@@H](CC(=O)O)C(=O)N[C@@H](CCC(=O)O)C(=O)N[C@@H](CCC(=O)O)C(=O)N[C@@H](Cc2ccccc2)C(=O)N[C@@H](CCC(N)=O)C(=O)N[C@@H](CO)C(=O)N2CCC[C@H]2C(=O)N[C@@H](Cc2ccccc2)C(=O)N[C@@H](C)C(=O)N[C@@H](CO)C(=O)N[C@@H](CCC(N)=O)C(=O)N[C@@H](CO)C(=O)N[C@@H](CCCNC(=N)N)C(=O)NCC(=O)N[C@@H](Cc2ccc(O)cc2)C(=O)N[C@@H](Cc2ccccc2)C(=O)N[C@H](C)C(=O)N[C@@H](Cc2c[nH]c3ccccc23)C(=O)N[C@@H](CCCNC(=N)N)C(=O)N2CCC[C@H]2C(=O)N[C@@H](CCCNC(=N)N)C(=O)N[C@@H](CC(N)=O)C(N)=O)C(C)C)C1=O` (stereo partly shown) [NMU13] (Ac-C(Succinimide(1-Et,3-yl))FRVDEEFQSPFASQSRGYF[dA]WRPRN-NH2), for which, in the assay with diet-induced obese mice (acute peripheral administration, wild-type mice), the food intake result is reported as “significantly reduced food intake”. Also, on hNMUR2, the IC50 is over 1000 nM. Besides, the “% inhibition of NMU-25 binding” value on rat NMUR1-ATG worked out at 100%.

Take “H-FRVDEEFQSPFASQSRGYFLFRPRN-NH2 [hNMU-25, reference compound]”: the “Body weight (BW) change (in grams) {relative to vehicle} Day 1” value with diet-induced obese mice (10 mg/kg, Day 1) is −0.6 grams. In addition, the “% Food intake (FI) reductions Day 1” value in the assay with diet-induced obese mice (10 mg/kg, Day 1, based on vehicle responses) was found to be 21%. For the same compound, the half-inhibitory concentration (IC50) at hNMUR2 came to 0.8 nM; on rat NMUR1-ATG (binding) it was 1.2 nM.
